# Test results reported in US20260015322A1, “DELIVERY OF THERAPEUTIC ALKALOID COMPOUNDS” (priority 2022, published 2026).
# Like-named read-outs stand apart in the source and are kept apart here.
# How the values were obtained:
# [1] = Plasma Stability Assay (Example A3), human plasma; format: in vitro ADME; conditions: 10 μM, 37° C., prodrug remaining
# Excerpt: (§1) The data is represented in the table below.
# [2] = Plasma Stability Assay (Example A3), rat plasma; format: in vitro ADME; conditions: 10 μM, 37° C., prodrug remaining
# Excerpt: as §1
# [3] = Hydrolysis Assay - Condition 1 (SGF); format: physicochemical; conditions: Condition 1: SGF with pepsin pH 1.5, 37° C., 0.5 mM
# Experimental: 50 uL of compound (10 mM) in DMSO was diluted into 950 uL of Simulated Gastric Fluid (SGF) with pepsin (pH 1.5) to a final concentration of 0.5 mM. The hydrolysis kinetics were conducted at 37° C. and measured by LCMS at a certain time interval.
# (§2) The corresponding LCMS chromatogram were recorded and the conversions were calculated by integration of each peak.
# (§3) • 1) LCMS spectra were obtained using Agilent 1200G1956A or SHIMADZU LCMS-2020. • Standard LCMS conditions were as follows (running time 1.55 minutes): • Acidic condition: Mobile Phase A: 0.0375% TFA in water (v/v). Mobile Phase B: 0.01875% TFA in acetonitrile (v/v); Column: Kinetex EVO C18 30*2.1 mm, 5 μm. • Basic condition: Mobile Phase A: 0.025% NH3·H2O in water (v/v). Mobile Phase B: Acetonitrile; Column: Kinetex EVO C18 2.1×30 mm, 5 μm. • 2) Conversion (%)=peak area 1/(peak area 1+peak area 2)*100%, peak area 1 is the integration of hydrolyzed product, peak area 2 is the integration of starting material.
# [4] = Plasma Stability Assay (Example A2), mouse plasma; format: in vitro ADME; conditions: Mouse Plasma, 37° C., prodrug remaining
# Experimental: (§4) Each test was carried out in duplicate for each time point; 0 min, 15 min, 30 min, 60 min, 120, 240 min. […]
# [5] = Plasma Stability Assay (Example A2), human plasma; format: in vitro ADME; conditions: 37° C., prodrug remaining
# Experimental: as §4
# [6] = Hydrolysis Assay - Condition 2 (DI Water); format: physicochemical; conditions: 25° C., 0.5 mM
# Experimental: 50 uL of compound (10 mM) in DMSO was diluted into 950 uL of DI water to a final concentration of 0.5 mM. The hydrolysis kinetics were conducted at 25° C. and measured by LCMS at a certain time interval.
# as §2, §3
# [7] = Metabolic Stability in Human Hepatocytes; format: in vitro ADME; conditions: cryopreserved human hepatocytes, 5×10^5 viable cells/mL, 37° C.
# Experimental: A 2.5 uL aliquot of 100 μM test compound was incubated with 247.5 uL of cryopreserved hepatocytes suspended in serum-free incubation medium at 5×10^5 viable cells/mL. The mixture was incubated at 37° C. and shaken at 500 rpm for the designated time points (0.5, 15, 30, 60, 90, or 120 min). At each time point, 25 μL aliquot of incubation mixture was transferred to 125 μL of cold acetonitrile containing internal standard, followed by centrifugation for 30 min at 3,220 g. 100 μL of supernatant was mixed with 100 μL of distilled water for analysis by LC-MS/MS. Peak areas were determined from extracted ion chromatograms and in vitro half-life (t1/2) was determined from the concentration vs time regression slope, in vitro t1/2=0.693/k. Conversion of the in vitro t1/2 (in min) into the in vitro intrinsic clearance (in vitro CLint, in μL/min/10^6 cells) is done using: in vitro CLint=kV/N.
# in vivo = format: in vivo, male C57BL/6 mice; conditions: 321 IV 2 mg/kg, mice
# Experimental: Total fifteen male mice were used in this study with n=3 mice/time point with sparse sampling study design. Animals were administered through intravenous route with solution formulation of 321 at 2 mg/kg dose.
# The extraction procedure for plasma/brain samples and the spiked plasma/brain calibration standards were identical (PMSF Stabilized Plasma and Brain used for Preparation of calibration standards): A 20 μL of study sample plasma/brain or spiked plasma/brain calibration standard was added to individual pre-labeled micro-centrifuge tubes followed by 200 μL of internal standard prepared in acetonitrile (Rosuvastatin, 50 ng/mL) was added except for blank, where 200 μL of acetonitrile was added. Samples were vortexed for 5 minutes. Samples were centrifuged for 10 minutes at a speed of 4000 rpm at 4° C. Following centrifugation, 200 μL of clear supernatant was transferred in 96 well plates and analyzed using LC-MS/MS.
# Brain samples were diluted (1-part of tissue: 2-part of buffer) and homogenized. The homogenate was submitted for bioanalysis and the concentrations (ng/mL) received were corrected with dilution factor (3×) and the final reported concentrations were represented in ng/g.
# The plasma and brain concentration-time data of 321 and 001 were used for the pharmacokinetic analysis.
# [8] = male, C57BL/6, mouse, in vivo, 321, read-out: Brain concentrations (mean)
# [9] = male, C57BL/6, mouse, in vivo, 321, read-out: Plasma concentrations (mean)
smiles,measurement,setting,value
"COc1ccc([C@@]23CCC(OP(=O)(OC(C)C)OC(C)C)=C[C@@H]2N(C)CC3)cc1OC [Compound 321, [(3aS,7aS)-3a-(3,4-dimethoxyphenyl)-1-methyl-3,4,5,7a-tetrahydro-2H-indol-6-yl]diisopropyl phosphate]",Prodrug (%),[1]; 0 min,100.0%
same,Prodrug (%),[1]; 10 min,>99%
same,Prodrug (%),[1]; 30 min,>99%
same,Prodrug (%),[1]; 60 min,98.1%
same,Prodrug (%),[1]; 120 min,94.5%
same,Prodrug (%),[1]; 240 min,96.3%
same,Prodrug (%),[2]; 0 min,100.0%
same,Prodrug (%),[2]; 10 min,74.0%
same,Prodrug (%),[2]; 30 min,69.8%
same,Prodrug (%),[2]; 60 min,69.2%
same,Prodrug (%),[2]; 120 min,68.4%
same,Prodrug (%),[2]; 240 min,65.7%
same,Conversion (%),[3]; 1 min,0%
same,Conversion (%),[3]; 5 min,0%
same,Conversion (%),[3]; 30 min,0%
same,Conversion (%),[3]; 1 h,0%
same,Conversion (%),[3]; 4 h,0%
same,Conversion (%),[3]; 24 h,0%
same,Prodrug (%),[4]; 0 min,100%
same,Prodrug (%),[4]; 15 min,77.3%
same,Prodrug (%),[4]; 30 min,74.5%
same,Prodrug (%),[4]; 60 min,58.4%
same,Prodrug (%),[4]; 120 min,43.1%
same,Prodrug (%),[4]; 240 min,31.7%
same,Prodrug (%),[5]; 0 min,100%
same,Prodrug (%),[5]; 15 min,>99%
same,Prodrug (%),[5]; 30 min,>99%
same,Prodrug (%),[5]; 60 min,>99%
same,Prodrug (%),[5]; 120 min,>99%
same,Prodrug (%),[5]; 240 min,78.2%
same,Conversion (%),[6]; 1 min,0%
same,Conversion (%),[6]; 5 min,0%
same,Conversion (%),[6]; 30 min,0%
same,Conversion (%),[6]; 1 h,0%
same,Conversion (%),[6]; 4 h,0%
same,Conversion (%),[6]; 24 h,0%
same,t1/2,[7],23 min
same,Brain-Kp,in vivo; 321,0.28
same,brain concentrations quantifiable up to,in vivo; 321,≤ 0.5 h
same,plasma concentrations quantifiable up to,in vivo; 321,up to 2 h
same,T1/2,in vivo; 321 in Brain,6.6 min
same,Vss,in vivo; 321 in Brain,10.34 L/kg
same,CL,"in vivo; 321 in Brain, marked NR (not reportable)",NR (1154.07) mL/min/kg
same,AUClast,in vivo; 321 in Plasma,97.14 ng·h/mL
same,C0 (back extrapolated concentration),in vivo; 321 in Plasma,503.64 ng/mL
same,CL,in vivo; 321 in Plasma,340.73 mL/min/kg
same,T1/2,in vivo; 321 in Plasma,21.6 min
same,Vss,in vivo; 321 in Plasma,4.80 L/kg
same,concentration at 0.08 h,in vivo; [8],99.6 ng/g
same,concentration at 0.08 h,in vivo; [9],305 ng/mL
same,concentration at 0.25 h,in vivo; [8],37.1 ng/g
same,concentration at 0.25 h,in vivo; [9],105 ng/mL
same,concentration at 0.5 h,in vivo; [8],7.89 ng/g
same,concentration at 0.5 h,in vivo; [9],26.2 ng/mL
same,concentration at 1 h,"in vivo; male, C57BL/6, mouse, in vivo, 321, 1 h, read-out: Plasma concentrations (mean)",8.57 ng/mL
same,concentration at 2 h,"in vivo; male, C57BL/6, mouse, in vivo, 321, 2 h, average of two values, read-out: Plasma concentrations (mean)",1.38 ng/mL
